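Values below derive from 48-hour exposures of cells grown in 96-well plates, with endpoints linearly interpolated between the two concentrations bracketing the appropriate inhibition level. GI50 marks 50% less growth. TGI: concentration producing complete growth inhibition.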
Experiments:
Experiment in all cases: inhibition of tumour cell growth, NCI panel, 48 h
[1] = test system: 786-0 renal
[2] = test system: A498 renal
[3] = test system: A549 NSCLC
[4] = test system: ACHN renal
[5] = test system: BT-549 breast
[6] = test system: CAKI-1 renal
[7] = test system: CCRF-CEM leukemia
[8] = test system: COLO 205 colon
[9] = test system: DU-145 prostate
[10] = test system: EKVX NSCLC
[11] = test system: HCC-2998 colon
[12] = test system: HCT-116 colon
[13] = test system: HCT-15 colon
[14] = test system: HL-60(TB) leukemia
[15] = test system: HOP-62 NSCLC
[16] = test system: HOP-92 NSCLC
[17] = test system: HS 578T breast
[18] = test system: HT29 colon
[19] = test system: IGROV1 ovarian
[20] = test system: K-562 leukemia
[21] = test system: KM12 colon
[22] = test system: LOX IMVI melanoma
[23] = test system: M14 melanoma
[24] = test system: MALME-3M melanoma
[25] = test system: MCF7 breast
[26] = test system: MDA-MB-231 breast
[27] = test system: MDA-MB-435
[28] = test system: MDA-MB-468 breast
[29] = test system: MOLT-4 leukemia
[30] = test system: NCI-H226 lung
[31] = test system: NCI-H23 lung
[32] = test system: NCI-H460 lung
[33] = test system: NCI-H522 lung
[34] = test system: NCI/ADR-RES ovarian
[35] = test system: OVCAR-3 ovarian
[36] = test system: OVCAR-4 ovarian
[37] = test system: OVCAR-5 ovarian
[38] = test system: OVCAR-8 ovarian
[39] = test system: PC-3 prostate
[40] = test system: RPMI-8226 leukemia
[41] = test system: RXF 393 renal
[42] = test system: SF-268 CNS
[43] = test system: SF-295 CNS
[44] = test system: SF-539 CNS
[45] = test system: SK-MEL-2 melanoma
[46] = test system: SK-MEL-28 melanoma
[47] = test system: SK-MEL-5 melanoma
[48] = test system: SK-OV-3 ovarian
[49] = test system: SN12C renal
[50] = test system: SNB-19 CNS
[51] = test system: SNB-75 CNS
[52] = test system: SR leukemia
[53] = test system: SW-620 colon
[54] = test system: T-47D breast
[55] = test system: TK-10 renal
[56] = test system: U251 CNS
[57] = test system: UACC-257 melanoma
[58] = test system: UACC-62 melanoma
[59] = test system: UO-31 renal

CCN1C(=O)N(CC)C2NNC(Sc3c(C(=O)O)c4ccccc4n(CC(C)C)c3=O)=NC21 (stereo not drawn)
GI50 [1]: 7.45 µM
TGI [1]: > 100 µM
GI50 [2]: > 100 µM
TGI [2]: > 100 µM
GI50 [3]: 4.6 µM
TGI [3]: > 100 µM
GI50 [4]: 4.73 µM
TGI [4]: 46.2 µM
GI50 [5]: 35.7 µM
TGI [5]: > 100 µM
GI50 [6]: 3.1 µM
TGI [6]: 23.2 µM
GI50 [7]: 3.54 µM
TGI [7]: > 100 µM
GI50 [8]: 2.53 µM
TGI [8]: 6.95 µM
GI50 [9]: 4.49 µM
TGI [9]: > 100 µM
GI50 [10]: 3.11 µM
TGI [10]: > 100 µM
GI50 [11]: 3.28 µM
TGI [11]: 16.9 µM
GI50 [12]: 3.18 µM
TGI [12]: > 100 µM
GI50 [13]: 1.89 µM
TGI [13]: 18.8 µM
GI50 [14]: 2.37 µM
TGI [14]: 12.9 µM
GI50 [15]: 5.42 µM
TGI [15]: > 100 µM
GI50 [16]: 14.4 µM
TGI [16]: 64.1 µM
GI50 [17]: 2.94 µM
TGI [17]: 58.8 µM
GI50 [18]: 2.83 µM
TGI [18]: 12.5 µM
GI50 [19]: 2.54 µM
TGI [19]: 19.3 µM
GI50 [20]: 2.77 µM
TGI [20]: > 100 µM
GI50 [21]: 2.93 µM
TGI [21]: > 100 µM
GI50 [22]: 4.13 µM
TGI [22]: 20.6 µM
GI50 [23]: 4 µM
TGI [23]: > 100 µM
GI50 [24]: 5.23 µM
TGI [24]: 47.7 µM
GI50 [25]: 0.949 µM
TGI [25]: 21.5 µM
GI50 [26]: 2.51 µM
TGI [26]: 21.9 µM
GI50 [27]: 0.976 µM
TGI [27]: 4.19 µM
GI50 [28]: 0.442 µM
TGI [28]: 3.91 µM
GI50 [29]: 3.66 µM
TGI [29]: > 100 µM
GI50 [30]: 3.92 µM
TGI [30]: 21.1 µM
GI50 [31]: 3.67 µM
TGI [31]: 21.4 µM
GI50 [32]: 3.08 µM
TGI [32]: 12.2 µM
GI50 [33]: 1.88 µM
TGI [33]: 5.97 µM
GI50 [34]: 1.99 µM
TGI [34]: 4.89 µM
GI50 [35]: 3.19 µM
TGI [35]: 22.3 µM
GI50 [36]: 15 µM
TGI [36]: > 100 µM
GI50 [37]: 4.19 µM
TGI [37]: 67.1 µM
GI50 [38]: 3.55 µM
TGI [38]: 30.1 µM
GI50 [39]: 4.14 µM
TGI [39]: > 100 µM
GI50 [40]: 2.75 µM
TGI [40]: > 100 µM
GI50 [41]: 3.17 µM
TGI [41]: 17.1 µM
GI50 [42]: 6.46 µM
TGI [42]: > 100 µM
GI50 [43]: 3.01 µM
TGI [43]: 16.3 µM
GI50 [44]: 2.08 µM
TGI [44]: 5.47 µM
GI50 [45]: 4.21 µM
TGI [45]: > 100 µM
GI50 [46]: 6.5 µM
TGI [46]: > 100 µM
GI50 [47]: 3.83 µM
TGI [47]: 16.4 µM
GI50 [48]: 6.05 µM
TGI [48]: > 100 µM
GI50 [49]: 3.62 µM
TGI [49]: 34.4 µM
GI50 [50]: 3.78 µM
TGI [50]: 65 µM
GI50 [51]: 1.81 µM
TGI [51]: 9.27 µM
GI50 [52]: 13.2 µM
TGI [52]: > 100 µM
GI50 [53]: 4.05 µM
TGI [53]: > 100 µM
GI50 [54]: > 100 µM
TGI [54]: > 100 µM
GI50 [55]: 18.4 µM
TGI [55]: > 100 µM
GI50 [56]: 3.91 µM
TGI [56]: > 100 µM
GI50 [57]: 14.7 µM
TGI [57]: > 100 µM
GI50 [58]: 2.68 µM
TGI [58]: 33.5 µM
GI50 [59]: 4.11 µM
TGI [59]: > 100 µM

Reference: PubChem BioAssay (NCI)
